Like-named read-outs stand apart in the source and are kept apart here. Starred links: 1 amine or outer side, 2 acyl side, 3 side chain; linkers in the order of their positions; H or OH if unused. Positions of bridges follow the written chain, without caps; N, C: chain ends. Non-standard residues stand in square brackets, D forms with d. Residues, ends and D or L forms follow the SMILES beside them. Hyp = O=C(O)[C@@H]1C[C@@H](O)CN1; Cit = NC(=O)NCCC[C@H](N)C(=O)O; Thz = O=C(O)[C@@H]1CSCN1; CH2 = C([*:1])[*:2]
Key:
[1] = target: T1, human MC4R (Homo sapiens, UniProt P32245); assay: Functional cAMP assay (CisBio HTRF) in BHK cells expressing human MC4R; format: cell-based; conditions: for MC1R/MC4R cAMP EC50 ratio: MC1R cAMP EC50 divided by MC4R cAMP EC50
T1 construct: expressed in transfected cells
Procedure, shortened: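 Compound working solutions, 10-fold dilutions from 2 μM at twice final strength, in buffer containing 1 mM IBMX, were incubated 30 min at 25 °C with BHK cells stably carrying human MC4R or MC1R. Accumulated cAMP was then detected by competitive HTRF after 1 h at 25 °C and fitted by non-linear regression.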

[2] = target: T2, human MC1R (Homo sapiens, UniProt Q01726); assay: Functional cAMP assay (CisBio HTRF) in BHK cells expressing human MC1R; format: cell-based
T2 construct: expressed in transfected cells
Procedure: In order to assess the potency of the compounds on human MC1R and human MC4R cAMP signalling was measured.
cAMP induction was measured by c-AMPdynamic2 assay, HTRF 62AM4PEC system from CisBio for the human MC1R and human MC4R according to the protocol provided by the vendor. BHK cells expressing the human MC1 or MC4 receptor were generated by stable transfection with expression vectors encoding the cDNA of either MC1R or MC4R.
In details; 25 μl compound—or standard solution were added in the respective wells. Compound was reconstituted in buffer (DMEM w/o phenol red, 10 mM
Hepes, lx Glutamine, 0.1% OV-albumin1, 1 mM IBMX) and serially diluted starting at 2 μM, 10-fold seven times. Dilutions were carried out in the same aforementioned buffer to the desired working concentration ranges (2× higher than the final concentration). 25 μl cell solution was then added and allowed to incubate for 30 min while lightly shaking, at 25° C. […] The provided components for the assay were reconstituted according to the CisBio assay protocol “3.1 supplied reagents and preparation procedure” in MilliQ purification system H2O and diluted 1:20 in lysis buffer. 25 μl cAMP-d2 and 25 μl Cryptate conjugate were added to all wells.
Plates were centrifuged at 1500 rpm for 30 sec and incubated for 1 h, lightly shaking, at 25° C. in a hotel stacker. The plates were read on Mithras LB 940 provided by Berthold Technologies The data were analysed by non-linear regression analysis of binding curves, using the Windows™ program GraphPad™ Prism (GraphPad Software, USA).
The latter is used when no full curve can be obtained in the concentration ranges indicated above.

[3] = target: T1, human MC4R; assay: 125NDP-α-MSH competitive binding to membranes of BHK cells expressing human MC4 receptor (filtration assay)
Procedure, shortened: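 Displacement of ^125NDP-α-MSH (apx. […] final) was measured by filtration after 2 h at 25 °C, using diluted membranes of stably transfected BHK cells in pH 7.0 HEPES buffer. Compounds spanned 1 μM to 0.001 nM; binding curves were analysed by non-linear regression.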

[4] = BHK cells expressing human MC1R, '>' = highest dose used with no response, read-out: MC1R cAMP EC50
[5] = BHK cells expressing human MC4R, '>' = highest dose used with no response, read-out: MC4R cAMP EC50
[6] = human MC4R, BHK cell membranes, 125NDP-α-MSH radioligand, read-out: MC4R binding Ki

T2 sequence (Q01726 whole entry): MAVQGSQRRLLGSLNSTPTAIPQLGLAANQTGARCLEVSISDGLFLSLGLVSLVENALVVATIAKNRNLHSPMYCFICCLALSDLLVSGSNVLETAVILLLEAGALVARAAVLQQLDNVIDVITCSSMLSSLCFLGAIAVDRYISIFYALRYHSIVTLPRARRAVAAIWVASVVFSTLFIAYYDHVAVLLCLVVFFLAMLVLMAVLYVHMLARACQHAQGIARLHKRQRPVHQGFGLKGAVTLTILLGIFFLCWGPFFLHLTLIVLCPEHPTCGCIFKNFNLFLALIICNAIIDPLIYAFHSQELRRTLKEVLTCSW
T1 sequence (P32245 whole entry): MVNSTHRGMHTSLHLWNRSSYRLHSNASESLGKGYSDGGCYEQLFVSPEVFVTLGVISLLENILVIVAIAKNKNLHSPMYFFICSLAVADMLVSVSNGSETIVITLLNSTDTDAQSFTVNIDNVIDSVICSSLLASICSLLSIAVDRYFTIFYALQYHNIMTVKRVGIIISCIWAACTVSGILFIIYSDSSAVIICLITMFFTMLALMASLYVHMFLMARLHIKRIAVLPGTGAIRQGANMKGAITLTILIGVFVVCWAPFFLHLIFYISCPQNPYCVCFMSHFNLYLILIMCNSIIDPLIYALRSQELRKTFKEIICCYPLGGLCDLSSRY

MC1R/MC4R cAMP EC50 ratio [1]	EC50 [2, 4] [nM]	EC50 [1, 5] [nM]	SMILES	other results
>3	> 10		C[C@@H]1NC(=O)[C@@H]2CSSC[C@H](NC(=O)[C@H](Cc3c[nH]c4ccccc34)NC(=O)[C@H](CCCNC(=N)N)NC(=O)[C@@H](Cc3ccccc3)NC(=O)[C@@H]3C[C@@H](O)CN3C1=O)C(=O)N[C@@H](C)C(=O)N1C[C@H](O)C[C@H]1C(=O)N[C@H](Cc1ccccc1)C(=O)N[C@@H](CCCNC(=N)N)C(=O)N[C@@H](Cc1c[nH]c3ccccc13)C(=O)N2 [Chem. 14, c[c[Cys-Ala-Hyp-D-Phe-Arg-Trp- Cys]-Ala-Hyp-D-Phe-Arg-Trp]] (cyclo(A[Hyp][dF]RWCA[Hyp][dF]RWC); disulfide 6-12)	
>5	> 1	0.21	C[C@@H]1NC(=O)[C@@H]2CSSC[C@H](NC(=O)[C@H](Cc3c[nH]c4ccccc34)NC(=O)[C@H](CCCN)NC(=O)[C@@H](Cc3ccccc3)NC(=O)[C@H](Cc3c[nH]cn3)NC1=O)C(=O)N[C@@H](C)C(=O)N[C@@H](Cc1c[nH]cn1)C(=O)N[C@H](Cc1ccccc1)C(=O)N[C@@H](CCCN)C(=O)N[C@@H](Cc1c[nH]c3ccccc13)C(=O)N2 [Chem. 16, c[c[Cys-Ala-His-D-Phe-Orn-Trp-Cys]- Ala-His-D-Phe-Orn-Trp]]	
>8	> 1	0.13	C[C@@H]1NC(=O)[C@@H]2CSSC[C@H](NC(=O)[C@H](Cc3c[nH]c4ccccc34)NC(=O)[C@H](CCCNC(N)=O)NC(=O)[C@@H](Cc3ccccc3)NC(=O)[C@H](Cc3c[nH]cn3)NC1=O)C(=O)N[C@@H](C)C(=O)N[C@@H](Cc1c[nH]cn1)C(=O)N[C@H](Cc1ccccc1)C(=O)N[C@@H](CCCNC(N)=O)C(=O)N[C@@H](Cc1c[nH]c3ccccc13)C(=O)N2 [Chem. 19, c[c[Cys-Ala-His-D-Phe-Cit-Trp-Cys]- Ala-His-D-Phe-Cit-Trp]]	
>3	> 10		C[C@@H]1NC(=O)[C@@H]2CSCSC[C@H](NC(=O)[C@H](Cc3c[nH]c4ccccc34)NC(=O)[C@H](CCCNC(=N)N)NC(=O)[C@@H](Cc3ccccc3)NC(=O)[C@@H]3C[C@@H](O)CN3C1=O)C(=O)N[C@@H](C)C(=O)N1C[C@H](O)C[C@H]1C(=O)N[C@H](Cc1ccccc1)C(=O)N[C@@H](CCCNC(=N)N)C(=O)N[C@@H](Cc1c[nH]c3ccccc13)C(=O)N2 [Chem. 23, c[c[Cys-Ala-Hyp-D-Phe-Arg-Trp- Cys]-Ala-Hyp-D-Phe-Arg-Trp]] (cyclo(A[Hyp][dF]RWCA[Hyp][dF]RWC); linker 6-12 via CH2)	
	> 100		C[C@@H]1NC(=O)[C@@H]2CSSC[C@H](NC(=O)[C@H](Cc3c[nH]c4ccccc34)NC(=O)[C@@H]3C[C@@H](NC(=N)N)CN3C(=O)[C@@H](Cc3ccccc3)NC(=O)[C@H](Cc3c[nH]cn3)NC1=O)C(=O)N[C@@H](C)C(=O)N[C@@H](Cc1c[nH]cn1)C(=O)N[C@H](Cc1ccccc1)C(=O)N1C[C@H](NC(=N)N)C[C@H]1C(=O)N[C@@H](Cc1c[nH]c3ccccc13)C(=O)N2 [Chem. 28, c[c[Cys-Ala-His-D-Phe-4trans- GuaPro-Trp-Cys]-Ala-His-D-Phe- 4trans-GuaPro-Trp]]	
	> 100		C[C@@H]1NC(=O)[C@@H]2CSSC[C@H](NC(=O)[C@H](Cc3c[nH]c4ccccc34)NC(=O)[C@@H]3C[C@H](NC(=N)N)CN3C(=O)[C@@H](Cc3ccccc3)NC(=O)[C@H](Cc3c[nH]cn3)NC1=O)C(=O)N[C@@H](C)C(=O)N[C@@H](Cc1c[nH]cn1)C(=O)N[C@H](Cc1ccccc1)C(=O)N1C[C@@H](NC(=N)N)C[C@H]1C(=O)N[C@@H](Cc1c[nH]c3ccccc13)C(=O)N2 [Chem. 29, c[c[Cys-Ala-His-D-Phe-4cis-GuaPro- Trp-Cys]-Ala-His-D-Phe-4cis-GuaPro- Trp]]	
>2	> 100		C[C@@H]1NC(=O)[C@@H]2CSSC[C@H](NC(=O)[C@H](Cc3c[nH]c4ccccc34)NC(=O)[C@H](CCCNC(N)=O)NC(=O)[C@@H](Cc3ccccc3)NC(=O)[C@H](Cc3c[nH]cn3)NC1=O)C(=O)N[C@@H](C)C(=O)N[C@@H](CCC(=O)O)C(=O)N[C@@H](CCC(=O)O)C(=O)N[C@@H](CCC(=O)O)C(=O)N[C@@H](Cc1c[nH]c3ccccc13)C(=O)N2 [Chem. 45, c[c[Cys-Ala-His-D-Phe-Cit-Trp-Cys]- Ala-Glu-Glu-Glu-Trp]] (cyclo(AEEEWCAH[dF][Cit]WC); disulfide 6-12)	
399		0.22	C[C@@H]1NC(=O)[C@@H]2CSSC[C@H](NC(=O)[C@H](CCCNC(=N)N)NC(=O)[C@H](Cc3c[nH]cn3)NC(=O)[C@H](CCCCN)NC(=O)[C@H](CCCCN)NC1=O)C(=O)N1CCC[C@H]1C(=O)N[C@@H](Cc1c[nH]cn1)C(=O)N[C@H](Cc1ccccc1)C(=O)N[C@@H](Cc1c[nH]cn1)C(=O)N[C@@H](Cc1c[nH]c3ccccc13)C(=O)N2 [Chem. 95, c[c[Cys-Pro-His-D-Phe-His-Trp-Cys]- Ala-Lys-Lys-His-Arg]] (cyclo(AKKHRCPH[dF]HWC); disulfide 6-12)	Ki [3, 6]: 0.07 nM
122		0.19	C[C@@H]1NC(=O)[C@@H]2CSSC[C@H](NC(=O)[C@H](CCCNC(=N)N)NC(=O)[C@H](CCCCN)NC(=O)[C@H](CCCCN)NC(=O)[C@H](CCCCN)NC1=O)C(=O)N1C[C@H](O)C[C@H]1C(=O)N[C@@H](Cc1c[nH]cn1)C(=O)N[C@H](Cc1ccccc1)C(=O)N[C@@H](Cc1c[nH]cn1)C(=O)N[C@@H](Cc1c[nH]c3ccccc13)C(=O)N2 [Chem. 97, c[c[Cys-Hyp-His-D-Phe-His-Trp-Cys]- Ala-Lys-Lys-Lys-Arg]] (cyclo(AKKKRC[Hyp]H[dF]HWC); disulfide 6-12)	Ki [3, 6]: 0.05 nM

SMILES	MC1R/MC4R cAMP EC50 ratio [1]	EC50 [2, 4] [nM]	EC50 [1, 5] [nM]	other results
N=C(N)NCCC[C@@H]1NC(=O)[C@@H](Cc2ccccc2)NC(=O)[C@@H]2C[C@@H](O)CN2C(=O)[C@@H]2CSSC[C@H](NC(=O)[C@H](Cc3c[nH]c4ccccc34)NC1=O)C(=O)N1C[C@H](O)C[C@H]1C(=O)N[C@H](Cc1ccccc1)C(=O)N[C@@H](CCCNC(=N)N)C(=O)N[C@@H](Cc1c[nH]c3ccccc13)C(=O)N2 [Chem. 27, c[c[Cys-Hyp-D-Phe-Arg-Trp-Cys]- Hyp-D-Phe-Arg-Trp]] (cyclo(C[Hyp][dF]RWC[Hyp][dF]RW); disulfide 1-6)	212	50.9	0.24	
N=C(N)NCCC[C@@H]1NC(=O)[C@@H](Cc2ccccc2)NC(=O)[C@H](Cc2c[nH]cn2)NC(=O)[C@@H]2CSSC[C@H](NC(=O)[C@H](Cc3c[nH]c4ccccc34)NC1=O)C(=O)N[C@@H](Cc1c[nH]cn1)C(=O)N[C@H](Cc1ccccc1)C(=O)N[C@@H](CCCNC(=N)N)C(=O)N[C@@H](Cc1c[nH]c3ccccc13)C(=O)N2 [Chem. 49, c[c[Cys-His-D-Phe-Arg-Trp-Cys]-His- D-Phe-Arg-Trp]] (cyclo(CH[dF]RWCH[dF]RW); disulfide 1-6)	>4			EC50 [2]: > 5.5 nM
O=C(O)CC[C@@H]1NC(=O)[C@@H]2CSSC[C@H](NC(=O)[C@H](Cc3c[nH]c4ccccc34)NC(=O)[C@H](Cc3c[nH]cn3)NC(=O)[C@@H](Cc3ccccc3)NC(=O)[C@H](Cc3c[nH]cn3)NC1=O)C(=O)N[C@@H](CCC(=O)O)C(=O)N[C@@H](Cc1c[nH]cn1)C(=O)N[C@H](Cc1ccccc1)C(=O)N[C@@H](Cc1c[nH]cn1)C(=O)N[C@@H](Cc1c[nH]c3ccccc13)C(=O)N2 [Chem. 53, c[c[Cys-Glu-His-D-Phe-His-Trp-Cys]- Glu-His-D-Phe-His-Trp]] (cyclo(CEH[dF]HWCEH[dF]HW); disulfide 1-7)	>1	> 10		
C[C@@H]1NC(=O)[C@@H]2CSSC[C@H](NC(=O)[C@H](CCCNC(=N)N)NC(=O)[C@H](CCCCN)NC(=O)[C@H](CCCCN)NC(=O)[C@H](CCCCN)NC1=O)C(=O)N1CSC[C@H]1C(=O)N[C@@H](Cc1c[nH]cn1)C(=O)N[C@H](Cc1ccccc1)C(=O)N[C@@H](Cc1c[nH]cn1)C(=O)N[C@@H](Cc1c[nH]c3ccccc13)C(=O)N2 [Chem. 100, c[c[Cys-THAZ-His-D-Phe-His-Trp- Cys]-Ala-Lys-Lys-Lys-Arg]] (cyclo(AKKKRC[Thz]H[dF]HWC); disulfide 6-12)	925			Ki [3]: 0.04 nM; EC50 [1]: 0.02 nM

Reference: patent US20200223889A1, “Bicyclic Compounds Capable of Binding to Melanocortin 4 Receptor” (Novo Nordisk A/S, priority 2017, published 2020)
